Experimental data taken from ChEMBL document CHEMBL1201862, “PubChem BioAssay data set” (2004).
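In this assay, cells in 96-well plates receive the compound at five concentrations for 48 hours. Endpoints are linearly interpolated between the surrounding concentrations. At the GI50, growth is halved.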 Activity calls are given as the source filed them. Rule as the data show it: active = GI50 up to about 1.1 µM and inactive = higher.

Assays:
Test in all cases: DTP human tumour cell line panel, 48 h
SK-MEL-2 = system: SK-MEL-2
HCT-116 = system: HCT-116
MDA-N = system: MDA-N
DU-145 = system: DU-145
SK-MEL-5 = system: SK-MEL-5
RPMI-8226 = system: RPMI-8226
SK-MEL-28 = system: SK-MEL-28
NCI-H522 = system: NCI-H522
SNB-19 = system: SNB-19
MCF7 = system: MCF7
KM12 = system: KM12
A549 = system: A549
OVCAR-4 = system: OVCAR-4
UACC-62 = system: UACC-62
SNB-75 = system: SNB-75
OVCAR-8 = system: OVCAR-8
IGROV-1 = system: IGROV-1
Hs-578T = system: Hs-578T
OVCAR-5 = system: OVCAR-5
NCI-H460 = system: NCI-H460
SR = system: SR
RXF 393 = system: RXF 393
SW-620 = system: SW-620
PC-3 = system: PC-3
SF-295 = system: SF-295
EKVX = system: EKVX
M14 = system: M14
HT-29 = system: HT-29
NCI/ADR-RES = system: NCI/ADR-RES
OVCAR-3 = system: OVCAR-3
Malme-3M = system: Malme-3M
TK-10 = system: TK-10
COLO 205 = system: COLO 205
MOLT-4 = system: MOLT-4
CAKI-1 = system: CAKI-1
UO-31 = system: UO-31
SF-268 = system: SF-268
MDA-MB-435 = system: MDA-MB-435
MDA-MB-231 = system: MDA-MB-231
BT-549 = system: BT-549
HL-60 = system: HL-60
LOX IMVI = system: LOX IMVI
CCRF-CEM = system: CCRF-CEM
A498 = system: A498
HOP-62 = system: HOP-62
NCI-H226 = system: NCI-H226
U-251 = system: U-251
SF-539 = system: SF-539
ACHN = system: ACHN
SN12C = system: SN12C
SK-OV-3 = system: SK-OV-3
786-0 = system: 786-0
HOP-92 = system: HOP-92
UACC-257 = system: UACC-257
HCT-15 = system: HCT-15
NCI-H23 = system: NCI-H23
K562 = system: K562
HCC 2998 = system: HCC 2998

Question: Which results are given for `CCN1CCCCC(=N\O)/C(=N/O)CCCC1`?
Answer: GI50 (SK-MEL-2): > 100 µM (inactive); GI50 (HCT-116): > 100 µM (inactive); GI50 (MDA-N): > 100 µM (inactive); GI50 (DU-145): > 100 µM (inactive); GI50 (SK-MEL-5): > 100 µM (inactive); GI50 (RPMI-8226): > 100 µM (inactive); GI50 (SK-MEL-28): > 100 µM (inactive); GI50 (NCI-H522): > 100 µM (inactive); GI50 (SNB-19): > 100 µM (inactive); GI50 (MCF7): > 100 µM (inactive); GI50 (KM12): > 100 µM (inactive); GI50 (A549): > 100 µM (inactive); GI50 (OVCAR-4): > 100 µM (inactive); GI50 (UACC-62): > 100 µM (inactive); GI50 (SNB-75): > 100 µM (inactive); GI50 (OVCAR-8): > 100 µM (inactive); GI50 (IGROV-1): > 100 µM (inactive); GI50 (Hs-578T): > 100 µM (inactive); GI50 (OVCAR-5): > 100 µM (inactive); GI50 (NCI-H460): > 100 µM (inactive); GI50 (SR): > 100 µM (inactive); GI50 (RXF 393): > 100 µM (inactive); GI50 (SW-620): > 100 µM (inactive); GI50 (PC-3): > 100 µM (inactive); GI50 (SF-295): > 100 µM (inactive); GI50 (EKVX): 26.1 µM (inactive); GI50 (M14): > 100 µM (inactive); GI50 (HT-29): > 100 µM (inactive); GI50 (NCI/ADR-RES): > 100 µM (inactive); GI50 (OVCAR-3): > 100 µM (inactive); GI50 (Malme-3M): > 100 µM (inactive); GI50 (TK-10): > 100 µM (inactive); GI50 (COLO 205): > 100 µM (inactive); GI50 (MOLT-4): > 100 µM (inactive); GI50 (CAKI-1): > 100 µM (inactive); GI50 (UO-31): > 100 µM (inactive); GI50 (SF-268): > 100 µM (inactive); GI50 (MDA-MB-435): > 100 µM (inactive); GI50 (MDA-MB-231): > 100 µM (inactive); GI50 (BT-549): > 100 µM (inactive); GI50 (HL-60): > 100 µM (inactive); GI50 (LOX IMVI): > 100 µM (inactive); GI50 (CCRF-CEM): > 100 µM (inactive); GI50 (A498): > 100 µM (inactive); GI50 (HOP-62): > 100 µM (inactive); GI50 (NCI-H226): > 100 µM (inactive); GI50 (U-251): > 100 µM (inactive); GI50 (SF-539): > 100 µM (inactive); GI50 (ACHN): > 100 µM (inactive); GI50 (SN12C): > 100 µM (inactive); GI50 (SK-OV-3): > 100 µM (inactive); GI50 (786-0): > 100 µM (inactive); GI50 (HOP-92): > 100 µM (inactive); GI50 (UACC-257): > 100 µM (inactive); GI50 (HCT-15): > 100 µM; GI50 (NCI-H23): > 100 µM (inactive)

Question: Which results are given for `C=C[C@@H](C)[C@H](NS(=O)(=O)c1ccc(C)cc1)C(=O)OCC`?
Answer: GI50 (SK-MEL-2): 33.3 µM (inactive); GI50 (HCT-116): 35.5 µM (inactive); GI50 (MDA-N): 28 µM (inactive); GI50 (K562): 39.7 µM (inactive); GI50 (DU-145): 37.1 µM (inactive); GI50 (RPMI-8226): 14 µM (inactive); GI50 (SK-MEL-28): 35.9 µM (inactive); GI50 (NCI-H522): 20.6 µM (inactive); GI50 (SNB-19): 74 µM (inactive); GI50 (MCF7): 28.8 µM (inactive); GI50 (KM12): 28.1 µM (inactive); GI50 (A549): 32 µM (inactive); GI50 (OVCAR-4): 27.2 µM (inactive); GI50 (UACC-62): 12.8 µM (inactive); GI50 (SNB-75): 15.3 µM (inactive); GI50 (OVCAR-8): 40.2 µM (inactive); GI50 (IGROV-1): 25.8 µM (inactive); GI50 (Hs-578T): 19.7 µM (inactive); GI50 (OVCAR-5): 26.2 µM (inactive); GI50 (NCI-H460): 42.2 µM (inactive); GI50 (SR): 30.8 µM (inactive); GI50 (RXF 393): 42.3 µM (inactive); GI50 (SW-620): 40.3 µM (inactive); GI50 (PC-3): 32.4 µM (inactive); GI50 (SF-295): 21.2 µM (inactive); GI50 (EKVX): 30.8 µM (inactive); GI50 (M14): 54.1 µM (inactive); GI50 (HT-29): 27.2 µM (inactive); GI50 (NCI/ADR-RES): 41.3 µM (inactive); GI50 (OVCAR-3): 20.7 µM (inactive); GI50 (Malme-3M): 39.7 µM (inactive); GI50 (TK-10): 52.6 µM (inactive); GI50 (COLO 205): 52.2 µM (inactive); GI50 (MOLT-4): 50.6 µM (inactive); GI50 (UO-31): 31.3 µM (inactive); GI50 (SF-268): 32 µM (inactive); GI50 (MDA-MB-435): 21.4 µM (inactive); GI50 (MDA-MB-231): > 100 µM (inactive); GI50 (BT-549): 76.4 µM (inactive); GI50 (HL-60): 57 µM (inactive); GI50 (LOX IMVI): 19.7 µM (inactive); GI50 (CCRF-CEM): 28.2 µM (inactive); GI50 (A498): 48.5 µM (inactive); GI50 (HOP-62): > 100 µM (inactive); GI50 (NCI-H226): > 100 µM (inactive); GI50 (U-251): 33.5 µM (inactive); GI50 (SF-539): > 100 µM (inactive); GI50 (ACHN): 35.6 µM (inactive); GI50 (SN12C): > 100 µM (inactive); GI50 (SK-OV-3): 36.6 µM (inactive); GI50 (786-0): 40.8 µM (inactive); GI50 (UACC-257): 24.9 µM (inactive); GI50 (HCT-15): 31.3 µM; GI50 (NCI-H23): 39.4 µM (inactive)

Question: With `CC(O)CCCCC(O)CCC[C@H](O)[C@H]1CCC([C@H]2CCC([C@@H](O)CCCCCCCCCCCCC3=C[C@H](C)OC3=O)O2)O1` (stereo partly drawn) as the molecule, how does the GI50 (SK-MEL-2) read?
Answer: 8.77 µM (inactive)

Question: And the GI50 (HCT-116)?
Answer: 0.0667 µM (active)

Question: And the GI50 (MDA-N)?
Answer: 10.6 µM (inactive)

Question: And the GI50 (DU-145)?
Answer: 12 µM (inactive)

Question: And the GI50 (SK-MEL-5)?
Answer: 7.93 µM (inactive)

Question: What about the GI50 (SK-MEL-28) of the same molecule?
Answer: 13.5 µM (inactive)

Question: And the GI50 (NCI-H522)?
Answer: 7.64 µM (inactive)

Question: What about the GI50 (SNB-19) of the same molecule?
Answer: 10.3 µM (inactive)

Question: And the GI50 (MCF7)?
Answer: 5.25 µM (inactive)

Question: What about the GI50 (KM12) of the same molecule?
Answer: 5.48 µM (inactive)

Question: And the GI50 (A549)?
Answer: 7.94 µM (inactive)

Question: And the GI50 (OVCAR-4)?
Answer: 12.6 µM (inactive)

Question: And the GI50 (UACC-62)?
Answer: 10.9 µM (inactive)

Question: What about the GI50 (SNB-75) of the same molecule?
Answer: 9.12 µM (inactive)

Question: And the GI50 (OVCAR-8)?
Answer: 10.1 µM (inactive)

Question: What about the GI50 (IGROV-1) of the same molecule?
Answer: 10.5 µM (inactive)

Question: What about the GI50 (Hs-578T) of the same molecule?
Answer: 12.3 µM (inactive)

Question: And the GI50 (OVCAR-5)?
Answer: 11.4 µM (inactive)

Question: And the GI50 (NCI-H460)?
Answer: 8.22 µM (inactive)

Question: And the GI50 (SR)?
Answer: 0.0075 µM (active)

Question: And the GI50 (RXF 393)?
Answer: 12.1 µM (inactive)

Question: And the GI50 (SW-620)?
Answer: 12.8 µM (inactive)

Question: And the GI50 (PC-3)?
Answer: 10.7 µM (inactive)

Question: What about the GI50 (SF-295) of the same molecule?
Answer: 9.29 µM (inactive)

Question: And the GI50 (EKVX)?
Answer: 8.15 µM (inactive)

Question: What about the GI50 (M14) of the same molecule?
Answer: 11.4 µM (inactive)

Question: What about the GI50 (HT-29) of the same molecule?
Answer: 10.7 µM (inactive)

Question: And the GI50 (NCI/ADR-RES)?
Answer: 2.44 µM (inactive)

Question: And the GI50 (OVCAR-3)?
Answer: 9.51 µM (inactive)

Question: And the GI50 (TK-10)?
Answer: 9.48 µM (inactive)

Question: And the GI50 (HCC 2998)?
Answer: 13.2 µM (inactive)

Question: And the GI50 (COLO 205)?
Answer: 11.1 µM (inactive)

Question: And the GI50 (MOLT-4)?
Answer: 3.9 µM (inactive)

Question: What about the GI50 (CAKI-1) of the same molecule?
Answer: 9.84 µM (inactive)

Question: What about the GI50 (UO-31) of the same molecule?
Answer: 9.44 µM (inactive)

Question: What about the GI50 (SF-268) of the same molecule?
Answer: 11.6 µM (inactive)

Question: What about the GI50 (MDA-MB-435) of the same molecule?
Answer: 9.18 µM (inactive)

Question: And the GI50 (MDA-MB-231)?
Answer: 10.4 µM (inactive)

Question: And the GI50 (BT-549)?
Answer: 11.2 µM (inactive)

Question: And the GI50 (HL-60)?
Answer: 9.79 µM (inactive)

Question: And the GI50 (CCRF-CEM)?
Answer: 9.38 µM (inactive)

Question: And the GI50 (HOP-62)?
Answer: 10.6 µM (inactive)

Question: What about the GI50 (NCI-H226) of the same molecule?
Answer: 9.59 µM (inactive)

Question: And the GI50 (U-251)?
Answer: 10.8 µM (inactive)

Question: And the GI50 (SF-539)?
Answer: 10.4 µM (inactive)

Question: And the GI50 (ACHN)?
Answer: 10.2 µM (inactive)

Question: What about the GI50 (SN12C) of the same molecule?
Answer: 12.2 µM (inactive)

Question: What about the GI50 (SK-OV-3) of the same molecule?
Answer: 11.7 µM (inactive)

Question: What about the GI50 (786-0) of the same molecule?
Answer: 14.4 µM (inactive)

Question: What about the GI50 (HOP-92) of the same molecule?
Answer: 11.4 µM (inactive)

Question: And the GI50 (UACC-257)?
Answer: 9.33 µM (inactive)

Question: And the GI50 (HCT-15)?
Answer: 14.7 µM

Question: And the GI50 (NCI-H23)?
Answer: 8.65 µM (inactive)
